# Molecular target: T1, Polθ polymerase domain (amino acids 1792-2590) (Homo sapiens, UniProt O75417)
# T1 construct: 10×Histidine-SUMO (N, cleaved yes); made in house; host or cells: E. coli
# T1 sequence (O75417 1792-2590): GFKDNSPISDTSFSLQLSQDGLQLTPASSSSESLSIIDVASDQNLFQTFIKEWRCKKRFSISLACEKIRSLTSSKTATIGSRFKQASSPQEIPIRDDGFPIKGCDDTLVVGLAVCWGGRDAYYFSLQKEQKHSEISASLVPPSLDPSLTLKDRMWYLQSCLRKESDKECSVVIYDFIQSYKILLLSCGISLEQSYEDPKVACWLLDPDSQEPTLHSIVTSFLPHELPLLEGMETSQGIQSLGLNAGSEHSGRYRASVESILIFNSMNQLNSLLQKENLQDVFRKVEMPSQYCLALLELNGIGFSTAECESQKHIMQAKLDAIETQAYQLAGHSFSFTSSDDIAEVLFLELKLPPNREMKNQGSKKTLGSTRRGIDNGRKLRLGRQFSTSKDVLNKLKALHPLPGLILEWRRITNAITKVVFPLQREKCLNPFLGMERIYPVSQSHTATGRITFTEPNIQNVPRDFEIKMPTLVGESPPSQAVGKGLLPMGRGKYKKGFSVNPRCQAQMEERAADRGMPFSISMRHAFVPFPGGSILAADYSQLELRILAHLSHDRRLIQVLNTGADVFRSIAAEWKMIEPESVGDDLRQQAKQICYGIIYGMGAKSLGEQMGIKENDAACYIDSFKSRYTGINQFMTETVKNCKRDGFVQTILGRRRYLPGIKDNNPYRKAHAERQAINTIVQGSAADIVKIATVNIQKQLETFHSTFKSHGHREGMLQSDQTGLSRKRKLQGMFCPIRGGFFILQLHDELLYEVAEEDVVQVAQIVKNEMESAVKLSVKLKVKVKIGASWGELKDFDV
# Assay: Picogreen assay of Polθ polymerase activity
# Type: biochemical
# Details: 12-point concentration response, 90 minutes incubation at room temperature, 8 nM Polθ in 2×polymerase mixture, read-out: PolQ IC50
# Description: The DNA sequence of the polQ gene (Genebank ID #NM 199420.4) was chemically synthesized. The DNA sequence encoding the polymerase domain (amino acids 1792-2590) was subcloned into an E. coli expression plasmid, resulting in the fusion of 10×Histidine-SUMO tag at the N terminus of the polymerase domain.
# The protein was expressed in E. coli. and purified using a 2-step IMAC (immobilized metal chelate affinity chromatography) procedure. Briefly stated, the overexpressed E. coli lysate was subjected to Ni-NTA purification, and an N-terminal tag was digested by a SUMO protease. Then, the excised fragment of 10×Histidine-SUMO tag was removed using Ni-NTA beads. The resulting protein was used for the Picogreen assay, as described below.
# The methods of DNA complex preparation were slightly modified from the protocol previously reported (Zatreanu et al., 2021, Nature Communications, 12:3636). Briefly stated, polθ substrate was prepared by mixing Oligo1 (5′-GCG GCT GTC ATA AG-3′) and Oligo2 (5′-GCTACATTGACAATGGCATCAAATCTCAGATTGCGTCTTATGACAGCCGCG-3′) in an annealing buffer (20 mM Tris-Cl, pH 7.5, 50 mM NaCl) to the final concentration of 22 uM and 20 uM, respectively. The Polθ product was prepared by mixing Oligo3 (5′-CGCGGCTGTCATAAGACGCAATCTGAGATTTGATGCCATTGTCAATGTAGC-3′) and Oligo2 (5′-GCTACATTGACAATGGCATCAAATCTCAGATTGCGTCTTATGACAGCCGCG-3′) to the final concentration of 20 uM. The polθ product was used for the top signal control in the Picogreen assay. Both substrate and product were heated to 95° C. […] and cooled slowly to room temperature.
# To evaluate the ability of test compounds to inhibit the activity of polθ in vitro, a Picogreen assay was performed to measure polθ IC50 (nM).
# The reactions were performed at room temperature in an assay buffer (25 mM Tris-HCl, pH 7.5, 12.5 mM NaCl, 0.5 mM MgCl2, 5% (v/v) glycerol, 0.01% (v/v) Triton X-100, 0.01% (w/v) Bovine serum albumin, 1 mM DTT). Thirty microliters of 2×polymerase mixture (8 nM Polθ enzyme in an assay buffer) were distributed to 96 well plates, test compounds were prepared by dilution in 100% DMSO to obtain the correct dose range for a 12-point concentration response and 1 μl was dispensed into each well, and then 30 microliters of 2×substrate mix (100 nM DNA and 40 uM dNTPs in an assay buffer) was added. After 90 minutes of incubation, the reaction was stopped and DNA was stained by adding 40 microliters of Picogreen solution (1:80 dilution of Picogreen, Invitrogen, Cat #P7581, 25 mM Tris-HCl, pH 7.5, 10 mM EDTA, pH 7.5).
# The fluorescence intensity was measured at excitation/emission=485 nm/520 nm using an Ensight plate reader (Perkin Elmer). The data was analyzed by GraphPad Prism software (Version 8.4.3) to calculate IC50.
row,SMILES,IC50
1,Cc1cc(C(F)(F)F)cc(N2[C@H](C(=O)N(CC#Cc3cncc(N4CCOCC4)n3)c3ccc(F)c(C)c3)CCS2(=O)=O)n1 [compound 42],1 to 50 nM
2,Cc1cc(C(F)(F)F)cc(N2[C@H](C(=O)N(CC#Cc3ncc(N4CCOCC4)nc3N)c3ccc(F)c(C)c3)CCS2(=O)=O)n1 [compound 43],1 to 50 nM
3,Cc1cc(C(F)(F)F)cc(N2[C@H](C(=O)N(CC#Cc3cnc(N4CCOCC4)c(N)n3)c3ccc(F)c(C)c3)CCS2(=O)=O)n1 [compound 44],1 to 50 nM
4,Cc1cc(C(F)(F)F)cc(N2[C@H](C(=O)N(CC#Cc3cnc(N4CCOCC4)c(C)n3)c3ccc(F)c(C)c3)CCS2(=O)=O)n1 [compound 45],1 to 50 nM
5,Cc1cc(C(F)(F)F)cc(N2[C@H](C(=O)N(CC#Cc3cnc(N4CCOCC4)c(C(F)(F)F)n3)c3ccc(F)c(C)c3)CCS2(=O)=O)n1 [compound 46],1 to 50 nM
6,Cc1cc(C(F)(F)F)cc(N2[C@H](C(=O)N(CC#Cc3cnc(N4C[C@@H](C)O[C@@H](C)C4)cn3)c3ccc(F)c(C)c3)CCS2(=O)=O)n1 [compound 47],1 to 50 nM
7,Cc1cc(C(F)(F)F)cc(N2[C@H](C(=O)N(CC#Cc3cnc(N4CC5CCC(C4)O5)cn3)c3ccc(F)c(C)c3)CCS2(=O)=O)n1 [compound 48],1 to 50 nM
8,Cc1cc(C(F)(F)F)cc(N2[C@H](C(=O)N(CC#Cc3cnc(N4C5CCC4COC5)cn3)c3ccc(F)c(C)c3)CCS2(=O)=O)n1 [compound 49],1 to 50 nM
9,CCN1CCN(c2cnc(C#CCN(C(=O)[C@@H]3CCS(=O)(=O)N3c3cc(C(F)(F)F)cc(C)n3)c3ccc(F)c(C)c3)cn2)CC1 [compound 50],1 to 50 nM
10,CCN1CCN(c2cnc(C#CCN(C(=O)[C@@H]3CCS(=O)(=O)N3c3cc(C(F)(F)F)cc(C)n3)c3cc(C)ccc3F)cn2)CC1 [compound 51],1 to 50 nM
11,Cc1cc(C(F)(F)F)cc(N2[C@H](C(=O)N(CC#Cc3cnc(N4C[C@H](C)N[C@@H](C)C4)cn3)c3ccc(F)c(C)c3)CCS2(=O)=O)n1 [compound 52],1 to 50 nM
12,Cc1cc(C(F)(F)F)cc(N2[C@H](C(=O)N(CC#Cc3cnc(N4C[C@H](C)N(C(C)C)[C@@H](C)C4)cn3)c3ccc(F)c(C)c3)CCS2(=O)=O)n1 [compound 53],1 to 50 nM
13,Cc1cc(C(F)(F)F)cc(N2[C@H](C(=O)N(CC#Cc3cnc(N4[C@H](C)CN(C(C)C)C[C@H]4C)cn3)c3ccc(F)c(C)c3)CCS2(=O)=O)n1 [compound 55],1 to 50 nM
14,Cc1cc(C(F)(F)F)cc(N2[C@H](C(=O)N(CC#Cc3cnc(-c4c[nH]nn4)cn3)c3ccc(F)c(C)c3)CCS2(=O)=O)n1 [compound 56],1 to 50 nM
15,Cc1cc(C(F)(F)F)cc(N2[C@H](C(=O)N(CC#Cc3cnc(-n4ccnn4)cn3)c3ccc(F)c(C)c3)CCS2(=O)=O)n1 [compound 57],1 to 50 nM
16,Cc1cc(C(F)(F)F)cc(N2[C@H](C(=O)N(CC#Cc3cnc(-c4ncon4)cn3)c3ccc(F)c(C)c3)CCS2(=O)=O)n1 [compound 58],> 101 nM
17,Cc1cc(C(F)(F)F)cc(N2[C@H](C(=O)N(CC#Cc3cnc(C#N)cn3)c3ccc(F)c(C)c3)CCS2(=O)=O)n1 [compound 59],> 101 nM
18,Cc1cc(C(F)(F)F)cc(N2[C@H](C(=O)N(CC#Cc3cnc(C(=O)O)cn3)c3ccc(F)c(C)c3)CCS2(=O)=O)n1 [compound 60],1 to 50 nM
19,Cc1cc(C(F)(F)F)cc(N2[C@H](C(=O)N(CC#Cc3cnc(C(N)=O)cn3)c3ccc(F)c(C)c3)CCS2(=O)=O)n1 [compound 61],> 101 nM

row,SMILES,IC50
1,Cc1cc(C(F)(F)F)cc(N2[C@H](C(=O)N(CC#Cc3cnc(C(N)=O)c(C)n3)c3ccc(F)c(C)c3)CCS2(=O)=O)n1 [compound 62],1 to 50 nM
2,Cc1cc(C(F)(F)F)cc(N2[C@H](C(=O)N(CC#Cc3cncc(C(N)=O)n3)c3ccc(F)c(C)c3)CCS2(=O)=O)n1 [compound 63],1 to 50 nM
3,Cc1cc(C(F)(F)F)cc(N2[C@H](C(=O)N(CC#Cc3nccnc3C(N)=O)c3ccc(F)c(C)c3)CCS2(=O)=O)n1 [compound 64],1 to 50 nM
4,Cc1cc(C(F)(F)F)cc(N2[C@H](C(=O)N(CC#Cc3cnc(S(N)(=O)=O)cn3)c3ccc(F)c(C)c3)CCS2(=O)=O)n1 [compound 65],> 101 nM
5,Cc1cc(C(F)(F)F)cc(N2[C@H](C(=O)N(CC#Cc3cncc(S(N)(=O)=O)n3)c3ccc(F)c(C)c3)CCS2(=O)=O)n1 [compound 66],51 to 100 nM
6,CNC(=O)c1cnc(C#CCN(C(=O)[C@@H]2CCS(=O)(=O)N2c2cc(C(F)(F)F)cc(C)n2)c2ccc(F)c(C)c2)cn1 [compound 67],1 to 50 nM
7,Cc1cc(C(F)(F)F)cc(N2[C@H](C(=O)N(CC#Cc3cnc(C(=O)N(C)C)cn3)c3ccc(F)c(C)c3)CCS2(=O)=O)n1 [compound 68],1 to 50 nM
8,Cc1cc(C(F)(F)F)cc(N2[C@H](C(=O)N(CC#Cc3cnc(C(=O)N4CCOCC4)cn3)c3ccc(F)c(C)c3)CCS2(=O)=O)n1 [compound 69],1 to 50 nM
9,Cc1cc(C(F)(F)F)cc(N2[C@H](C(=O)N(CC#Cc3cncc(C(=O)N4CCOCC4)n3)c3ccc(F)c(C)c3)CCS2(=O)=O)n1 [compound 70],1 to 50 nM
10,Cc1cc(C(F)(F)F)cc(N2[C@H](C(=O)N(CC#Cc3cncc(C(=O)N4CC5CCC(C4)O5)n3)c3ccc(F)c(C)c3)CCS2(=O)=O)n1 [compound 71],1 to 50 nM
11,Cc1cc(C(F)(F)F)cc(N2[C@H](C(=O)N(CC#Cc3cncc(C(=O)N4CCNCC4)n3)c3ccc(F)c(C)c3)CCS2(=O)=O)n1 [compound 72],1 to 50 nM
12,Cc1cc(C(F)(F)F)cc(N2[C@H](C(=O)N(CC#Cc3cncc(C(=O)N4CC5CCC(C4)N5)n3)c3ccc(F)c(C)c3)CCS2(=O)=O)n1 [compound 73],1 to 50 nM
13,Cc1cc(C(F)(F)F)cc(N2[C@H](C(=O)N(CC#Cc3cncc(C(=O)N4C[C@H](C)N[C@@H](C)C4)n3)c3ccc(F)c(C)c3)CCS2(=O)=O)n1 [compound 74],> 101 nM
14,Cc1cc(C(F)(F)F)cc(N2[C@H](C(=O)N(CC#Cc3cc(N4CCOCC4)ncn3)c3ccc(F)c(C)c3)CCS2(=O)=O)n1 [compound 75],1 to 50 nM
15,Cc1cc(C(F)(F)F)cc(N2[C@H](C(=O)N(CC#Cc3cc(N4CCOCC4)nc(C(F)(F)F)n3)c3ccc(F)c(C)c3)CCS2(=O)=O)n1 [compound 76],51 to 100 nM
16,Cc1cc(C(F)(F)F)cc(N2[C@H](C(=O)N(CC#Cc3cnc(N4CCOCC4)nc3)c3ccc(F)c(C)c3)CCS2(=O)=O)n1 [compound 77],1 to 50 nM
17,Cc1cc(C(F)(F)F)cc(N2[C@H](C(=O)N(CC#Cc3cnc(C(N)=O)nc3)c3ccc(F)c(C)c3)CCS2(=O)=O)n1 [compound 78],1 to 50 nM
18,Cc1cc(C(F)(F)F)cc(N2[C@H](C(=O)N(CC#Cc3ncc(N4CCOCC4)cn3)c3ccc(F)c(C)c3)CCS2(=O)=O)n1 [compound 79],1 to 50 nM

# Source: patent US20260297083A1, “SUBSTITUTED ACETYLENE COMPOUND DERIVATIVES AND THEIR PHARMACEUTICAL USE” (AVELOS THERAPEUTICS INC., priority 2023, published 2026)
